The source of these data is BindingDB's records for doi:10.1021/acs.jmedchem.1c01681 (Second Military Medical University, 2021).

The nature of this experiment: Inhibition of SARS-CoV-2 spike glycoprotein expressed in HEK293T cells transfected with pAAV-CAG-HnCovS-RFP assessed as inhibition of membrane fusion to Huh-7 cells expressing hACE2 measured after 4 hrs by cell-cell fusion based fluorescence assay.

As usually defined, the EC50 is the concentration at which the effect is half-maximal.

For `CC[C@H](C)[C@H](NC(=O)CNC(=O)[C@H](CO)NC(=O)[C@@H](NC(=O)[C@H](CC(=O)O)NC(C)=O)[C@@H](C)CC)C(=O)N[C@@H](CC(N)=O)C(=O)N[C@@H](C)C(=O)N[C@@H](CO)C(=O)N[C@H](C(=O)N[C@H](C(=O)N[C@@H](CC(N)=O)C(=O)N[C@H](C(=O)N[C@@H](CCC(N)=O)C(=O)N[C@@H](CCCCN)C(=O)N[C@@H](CCC(=O)O)C(=O)N[C@H](C(=O)N[C@@H](CC(=O)O)C(=O)N[C@@H](CCCNC(=N)N)C(=O)N[C@@H](CC(C)C)C(=O)N[C@@]1(C)CCCC=CCCC[C@@](C)(C(=O)N[C@@H](CC(N)=O)C(=O)N[C@@H](CC(C)C)C(=O)N[C@@H](CC(N)=O)C(=O)N[C@@H](CCC(=O)O)C(=O)N[C@@H](CO)C(=O)N[C@@H](CC(C)C)C(=O)N[C@H](C(=O)N[C@@H](CC(=O)O)C(=O)N[C@@H](CC(C)C)C(=O)N[C@@H](CCC(N)=O)C(=O)N[C@@H](CCC(=O)O)C(=O)N[C@@H](CC(C)C)C(N)=O)[C@@H](C)CC)NC(=O)[C@H](C)NC(=O)[C@H](C(C)C)NC(=O)[C@H](CCC(=O)O)NC1=O)[C@@H](C)CC)[C@@H](C)CC)C(C)C)C(C)C`, the EC50 was found to be 5 µM.
